Values joined by “and” are separate entries in the source; they are usually repeats but may differ in a detail not shown here. Equal values may be shown once.
Assays:
Format in all cases: cell-based
[1] = tested on: MDA MB175 (tumoral cell lines); assay: In vitro cytotoxicity of Ara-N3 probe (Annexin V/IP, MTS)
Method: (§1) The cell lines (as detailed below in the table) were provided by Inserm/Aquiderm transfer cell. Cell culture of cell lines and cell cytoxicity tests were also carried out by Aquiderm transfer cell, in the laboratory of INSERM U1035.
(§2) All the cells were seeded in culture plates, either in 96 wells at the density of 1*10^4 cells/well for the MTS proliferation test, either in 24 wells at the density of 5*10^4 cells/well for the Annexin V test/IP test. Then the cells were incubated at 37° C. and 5% CO2 for 24 hours. After 24 hours, the culture medium was changed in all the wells and the cells adhered to the bottom of the wells were rinsed twice in PBS (Eurobio) or centrifuged and washed twice in PBS for the cells in suspension, before being exposed to the Ara-N3 probe at different concentrations: 1, 10, 50 and 100 mM. The cells were incubated at 37° C. and 5% CO2 for 48 hours.
(§3) This test requires the use of an Annexin V-APC kit (Biolegend) for the detection of apoptosis/necrosis. This test uses the ability of Annexin V to bind to membrane phosphatidylserines (PS) and the intercalating properties of propidium iodide (PI) on DNA.
(§4) Briefly, after incubation of the cells with the Ara-N3 probe at different concentrations and at different times (24 h and 48 h), the cells were recovered, trypsinized (for adherent cells) and washed in PBS. After counting in trypan blue on the Malassez cell, the cells were incubated in a labeling buffer (100 μL) in the presence of Annexin V-APC (5 μL) and of IP (10 μL) for 15 minutes at room temperature and in the dark. They were then directly analyzed by cytometry after adding 100 μL of labeling buffer.
(§5) The non-toxic concentrations of Ara-N3 with respect to the tested cells are gathered in the following Table 5.

[2] = tested on: MDA MB231 (tumoral cell lines); assay: as above
Method: as §1, §2, §3, §4, §5

[3] = tested on: human urinary bladder carcinoma (T24); assay: Labeling of bladder cells with Ara-N3 probe, copper-free click, fluorescence microscopy; settings: 24 h, Ara-N3 10 mM
Method: (§6) The human uroepithelial cells (SV-HUC-1) and the human urinary bladder carcinoma (T24) were purchased from ATCC (Manassas, Van USA). These cell lines were grown in RPMI 1640 with Glutamine 1 medium (Lonza Biowhttaker) supplemented by 10% fetal bovine serum (FBS) (VWR international S.A.S). The culture medium was changed every two days. The passaging of cells was performed using Tryp-LE express 1× (Gibco). The cell viability was estimated using trypan blue exclusion tests.
(§7) SV-HUC-1 and T24 cells were seeded in 24-well plates, at density of 5*10^4 cells/well. Then, cells were incubated at 37° C., 5% in CO2 during 24 hours. Thereafter, the culture medium of each well was discarded, and attached cells were washed twice with Phosphate Buffer Salin (PBS) (Lonza Biowhittaker), before to be exposed to Ara-N3 probe (10 mM). Probe was added to culture medium with different FBS concentrations (3% and 10%). Then, cells were incubated at 37° C., 5% in CO2 for 24 hours again. The control cells were cultured using culture medium supplemented with 5% or 10% FBS, without addition of Ara-N3.
(§8) The fluorescence Assimilation of Ara-N3 probes was visualized by copper-free click chemistry using sulfo-DBCO-biotin (1 mM), followed by labeling with a mouse anti-biotin Alexa Fluor 488 antibody conjugate (0.62 mg/ml stock, Jackson ImmunoResearch, dilution 1/10). The click reaction was carry-out as following: At 24 h incubation times, the culture mediums were removed, and attached cells were washed twice with PBS. Cells were detached with Tryp-LE, washed twice with PBS, and centrifuged at 13000 g for 2 min. The cellular pellets were resuspended with 10 μL of sulfo-DBCO-biotin and incubated 30 min in the dark, and at 37 C°. Then, cells were washed twice with PBS, centrifuged, and cellular pellets were resuspended with 10 μL of a mouse anti-biotin antibody solution, before to be incubated at room temperature in dark. Thereafter, cells were washed twice with PBS and small cellular suspension spots (5 μL) were put in Polysine® adhesion slides (VWR international S.A.S), in the dark room, until dry (20 min). The spots were fixed with 4% paraformaldehyde during 20 min, in dark and room temperature. Slides were then washed twice with PBS, before recovering with square cover glasses (VWR international S.A.S) using glycerol Mounting Medium (Dako) and stored at 4° C. in dark room.
(§9) The fluorescence acquisition was recorded using Olympus Microscopy IX83 (Olympus Life Science) equipped with a 60×/1.3 […]/1.4 SRI (silicone refractive index) objective, and Hamamatsu oreca flash 4 LT camera with 109 nm/pixel calibrated pixel size. The excitation light was emitted by X-CITE 120LED using the AT180/30X excited filter and signal was monitored using AT535/40m emission filter. Green light exposition time was 600 ms and white light exposition time was determined by DIC methods at […]. The acquisition area size analyzed by the Celisens dimension V1.16 software was different depending on the cell number containing in the spot.
(§10) The images were processed using count and measure unit of the Cellsens dimension V1.16 software. The background noise was deleted as follows: ROI were first defined on the background of the image and the average pixel intensity was calculated. The value thus obtained was subtracted from all pixels of the image. The fluorescence intensity of each cell was determined from a threshold set at a value of 3030. All pixels that have intensity below 3030 were not counted.

[4] = tested on: human uroepithelial cells (SV-HUC-1); assay: as above; settings: 24 h, Ara-N3 10 mM
Method: as §6, §7, §8, §9, §10

SMILES: [N-]=[N+]=NC[C@H]1OC(O)[C@@H](O)[C@@H]1O (stereo partly drawn) [Ara-N3, 5-azido-5-deoxy-D-arabinofuranose]
- Non-toxic concentration of Ara-N3 [1]: >1 mM
- Non-toxic concentration of Ara-N3 [2]: >1 mM
- labelled cells %, T24 % ([3]; Intensity/μm^2 0-50000, FBS 3%, n = 226): 2.21%
- labelled cells %, T24 % ([3]; Intensity/μm^2 0-50,000, FBS 10%, n = 282): 1.42%
- labelled cells %, T24 % ([3]; Intensity/μm^2 50,000-100,000, FBS 3%, n = 226): 2.65%
- labelled cells %, T24 % ([3]; Intensity/μm^2 50,000-100,000, FBS 10%, n = 282): 2.13%
- labelled cells %, T24 % ([3]; Intensity/μm^2 100,000-150,000, FBS 3%, n = 226): 2.65%
- labelled cells %, T24 % ([3]; Intensity/μm^2 100,000-150,000, FBS 10%, n = 282): 2.48%
- labelled cells %, T24 % ([3]; Intensity/μm^2 150,000-200,000, FBS 3%, n = 226): 5.75%
- labelled cells %, T24 % ([3]; Intensity/μm^2 150,000-200,000, FBS 10%, n = 282): 1.42%
- labelled cells %, T24 % ([3]; Intensity/μm^2 200,000-250,000, FBS 3%, n = 226): 3.98%
- labelled cells %, T24 % ([3]; Intensity/μm^2 200,000-250,000, FBS 10%, n = 282): 2.13%
- labelled cells %, T24 % ([3]; Intensity/μm^2 250,000-300,000, FBS 3%, n = 226): 3.54%
- labelled cells %, T24 % ([3]; Intensity/μm^2 250,000-300,000, FBS 10%, n = 282): 1.42%
- labelled cells %, T24 % ([3]; Intensity/μm^2 300,000-350,000, FBS 3%, n = 226): 2.21%
- labelled cells %, T24 % ([3]; Intensity/μm^2 300,000-350,000, FBS 10%, n = 282): 1.77%
- labelled cells %, T24 % ([3]; Intensity/μm^2 350,000-400,000, FBS 3%, n = 226): 3.98%
- labelled cells %, T24 % ([3]; Intensity/μm^2 350,000-400,000, FBS 10%, n = 282): 2.48%
- labelled cells %, T24 % ([3]; Intensity/μm^2 400,000-450,000, FBS 3%, n = 226): 2.65%
- labelled cells %, T24 % ([3]; Intensity/μm^2 400,000-450,000, FBS 10%, n = 282): 3.19%
- labelled cells %, T24 % ([3]; Intensity/μm^2 450,000-500,000, FBS 3%, n = 226): 3.54%
- labelled cells %, T24 % ([3]; Intensity/μm^2 450,000-500,000, FBS 10%, n = 282): 2.13%
- labelled cells %, T24 % ([3]; Intensity/μm^2 >500,000, FBS 3%, n = 226): 66.81%
- labelled cells %, T24 % ([3]; Intensity/μm^2 >500,000, FBS 10%, n = 282): 79.42% and 79.43%
- labelled cells %, SV-HUC1 % ([4]; Intensity/μm^2 0-50000, FBS 3%, n = 239): 62.34%
- labelled cells %, SV-HUC1 % ([4]; Intensity/μm^2 0-50,000, FBS 10%, n = 301): 73.45%
- labelled cells %, SV-HUC1 % ([4]; Intensity/μm^2 50,000-100,000, FBS 3%, n = 239): 2.51%
- labelled cells %, SV-HUC1 % ([4]; Intensity/μm^2 50,000-100,000, FBS 10%, n = 301): 4.32%
- labelled cells %, SV-HUC1 % ([4]; Intensity/μm^2 100,000-150,000, FBS 3%, n = 239): 2.09%
- labelled cells %, SV-HUC1 % ([4]; Intensity/μm^2 100,000-150,000, FBS 10%, n = 301): 1.66%
- labelled cells %, SV-HUC1 % ([4]; Intensity/μm^2 150,000-200,000, FBS 3%, n = 239): 1.26%
- labelled cells %, SV-HUC1 % ([4]; Intensity/μm^2 150,000-200,000, FBS 10%, n = 301): 1.33%
- labelled cells %, SV-HUC1 % ([4]; Intensity/μm^2 200,000-250,000, FBS 3%, n = 239): 1.67%
- labelled cells %, SV-HUC1 % ([4]; Intensity/μm^2 200,000-250,000, FBS 10%, n = 301): 0.66%
- labelled cells %, SV-HUC1 % ([4]; Intensity/μm^2 250,000-300,000, FBS 3%, n = 239): 3.77%
- labelled cells %, SV-HUC1 % ([4]; Intensity/μm^2 250,000-300,000, FBS 10%, n = 301): 0.66%
- labelled cells %, SV-HUC1 % ([4]; Intensity/μm^2 300,000-350,000, FBS 3%, n = 239): 0.42%
- labelled cells %, SV-HUC1 % ([4]; Intensity/μm^2 300,000-350,000, FBS 10%, n = 301): 0.33%
- labelled cells %, SV-HUC1 % ([4]; Intensity/μm^2 350,000-400,000, FBS 3%, n = 239): 0.42%
- labelled cells %, SV-HUC1 % ([4]; Intensity/μm^2 350,000-400,000, FBS 10%, n = 301): 0.66%
- labelled cells %, SV-HUC1 % ([4]; Intensity/μm^2 400,000-450,000, FBS 3%, n = 239): 0.84%
- labelled cells %, SV-HUC1 % ([4]; Intensity/μm^2 400,000-450,000, FBS 10%, n = 301): 0.66%
- labelled cells %, SV-HUC1 % ([4]; Intensity/μm^2 450,000-500,000, FBS 3%, n = 239): 2.93%
- labelled cells %, SV-HUC1 % ([4]; Intensity/μm^2 450,000-500,000, FBS 10%, n = 301): 1.33%
- labelled cells %, SV-HUC1 % ([4]; Intensity/μm^2 >500,000, FBS 3%, n = 239): 21.76%
- labelled cells %, SV-HUC1 % ([4]; Intensity/μm^2 >500,000, FBS 10%, n = 301): 14.62%

From US12517131B2, “Methods for labeling eukaryotic cells from a multicellular organism as well as for treating and/or diagnosing a cancer using modified monosaccharide compounds” (DIAMIDEX, priority 2019, dated 2026)
